Measurements taken from patent US7163931B2, “Compositions of estrogen-cyclodextrin complexes” (Schering Aktiengesellchaft, priority 2000, dated 2007).

Legend:
[1] = Acid dissociation constant (pKa) by photometric titration in aqueous media; assay type: physicochemical
Experimental: The Acid Dissociation Constant of the EE-β-CD complex in aqueous media was determined.
In aqueous solution, the ethinyl estradiol-β-cyclodextrin complex dissociates into its components according to the law of mass action. […] The pKa was measured by a photometric titration method following the guidance given in the Environmental Assessment Technical Handbook.

[2] = assay type: physicochemical
Experimental: The molar content of each degradation products is expressed relatively to the initial molar content of ethinyl estradiol that was added to each formulation. Four formulations as well as the pure ethinyl estradiol and the ethinyl estradiol β-cyclodextrin complex were investigated.

| Compound | acid dissociation constant pKa [1] | pKa ([1]; acid dissociation constant pKa) | total known degradation products (% of initial content of EE) [2] |
| --- | --- | --- | --- |
| C#C[C@]1(O)CC[C@H]2[C@@H]3CCc4cc(O)ccc4[C@H]3CC[C@@]21C [EE, ethinyl estradiol] | approx. 10.25 | 10.25 ± 0.04 | – |
| ethinyl estradiol-β-Cyclodextrin complex [EE-β-CD] | – | – | 0.385 % of initial content of EE |
